Laboratory results from ChEMBL document CHEMBL4028808, “Design and synthesis of selective CDK8/19 dual inhibitors: Discovery of 4,5-dihydrothieno[3',4':3,4]benzo[1,2-d]isothiazole derivatives” (Bioorg Med Chem, 2017).
The source made the active and inactive calls. The rule behind the calls is not given here.

Legend:
[1] = tested on: Mus musculus; experiment: AUC (0 to 24 hrs) in ICR mouse plasma at 0.1 mg/kg, iv administered as cassette dose by LC-MS/MS analysis; format: ADME, organism-based; set-up: dose 0.1 mg/kg, time < 24 hr, route intravenous; conditions: in vivo
[2] = biological target: Cyclin-dependent kinase 19 (Homo sapiens, UniProt Q9BWU1); experiment: Binding affinity to partial length wild-type human CDK19 (M1 to N360 residues) expressed in bacterial expression system by KINOMEscan assay
[3] = biological target: Dual specificity mitogen-activated protein kinase kinase 1 (Homo sapiens) (UniProt Q02750); experiment: Inhibition of MEK1 (unknown origin) at <1 uM using GST-ERK1 as substrate preincubated for 5 mins followed by substrate addition measured after 20 mins in presence of [gamma33P]ATP by scintillation counter method
[4] = Half life in ICR mouse plasma at 0.1 mg/kg, iv or 1 mg/kg, po administered as cassette dose by LC-MS/MS analysis; format: ADME, organism-based
[5] = biological target: CDK8/Cyclin C (Homo sapiens) (UniProt P49336+P24863); conditions: 1 uM
Description: Inhibition of kinase tracer-236 binding to GST-tagged CDK8/CyclinC (unknown origin) at 1 uM after 60 mins by TR-FRET assay relative to control

[6] = biological target: Rho-associated protein kinase 1 (Homo sapiens) (UniProt Q13464); experiment: Inhibition of ROCK1 (unknown origin) at 1 uM using long S6 peptide as substrate pretreated for 5 mins followed by substrate addition measured after 10 mins in presence of [gamma33P]ATP by scintillation counting method relative to control
[7] = biological target: Casein kinase I isoform delta (Homo sapiens) (UniProt P48730); experiment: Inhibition of CK1delta (unknown origin) at 1 uM using CK1tide as substrate preincubated for 5 mins followed by substrate addition measured after 20 mins in presence of [gamma33P]ATP by scintillation counter method relative to control
[8] = biological target: Mitogen-activated protein kinase kinase kinase 19 (Homo sapiens) (UniProt Q56UN5); experiment: Binding affinity to partial length wild-type human YSK4 (T1019 to H1328 residues) expressed in bacterial expression system assessed as unbound drug level at 300 nM by KINOMEscan assay
[9] = biological target: High affinity nerve growth factor receptor (Homo sapiens) (UniProt P04629); experiment: Inhibition of TrkA (unknown origin) at <1 uM
[10] = biological target: T1, Cyclin-dependent kinase 8 (Homo sapiens, UniProt P49336); experiment: Inhibition of CDK8 in human SW480 cells assessed as decrease in STAT1 phosphorylation at Ser727 after 2 hrs by Western blot method
[11] = biological target: Dual specificity tyrosine-phosphorylation-regulated kinase 1A (Homo sapiens) (UniProt Q13627); experiment: Binding affinity to partial length wild-type human DYRK1A (H129 to S509 residues) expressed in mammalian expression system assessed as unbound drug level at 300 nM by KINOMEscan assay
[12] = biological target: Mitogen-activated protein kinase kinase kinase 5 (Homo sapiens) (UniProt Q99683); experiment: Inhibition of ASK1 (unknown origin) at 1 uM using MBP as substrate preincubated for 5 mins followed by substrate addition measured after 60 mins in presence of [gamma33P]ATP by scintillation counter method relative to control
[13] = biological target: Vascular endothelial growth factor receptor 2 (Homo sapiens) (UniProt P35968); experiment: Inhibition of VEGFR2 (unknown origin) at <1 uM using biotinylated poly[Glu:Tyr] (4:1) as substrate pretreated for 5 mins followed by substrate addition measured after 10 mins by Alphascreen assay
[14] = biological target: Proto-oncogene tyrosine-protein kinase Src (Homo sapiens) (UniProt P12931); experiment: Inhibition of SRC (unknown origin) at <1 uM using biotinylated poly[Glu:Tyr] (4:1) as substrate pretreated for 5 mins followed by substrate addition measured after 10 mins by Alphascreen assay
[15] = biological target: Glycogen synthase kinase-3 beta (Homo sapiens) (UniProt P49841); experiment: Inhibition of GSK3beta (unknown origin) at 1 uM using GSK3 substrate peptide preincubated for 5 mins followed by substrate addition measured after 30 mins in presence of [gamma33P]ATP by scintillation counter method relative to control
[16] = biological target: Mitogen-activated protein kinase 14 (Homo sapiens) (UniProt Q16539); experiment: Inhibition of p38alpha (unknown origin) at <1 uM using MBP as substrate preincubated for 5 mins followed by substrate addition measured after 60 mins in presence of [gamma32P]ATP by scintillation counter method
[17] = Toxicity in C.B17/Icr scid/scid Jcl mouse mouse; conditions: in vivo
[18] = tested on: Mus musculus; experiment: Toxicity in C.B17/Icr scid/scid Jcl mouse assessed as body weight loss at 2.5 mg/kg, po qd administered for 14 days measured post last dose; format: organism-based; conditions: in vivo, 336 h
[19] = Mean residence time in ICR mouse plasma at 1 mg/kg, po administered as cassette dose by LC-MS/MS analysis; format: ADME, organism-based
[20] = biological target: Aurora kinase B (Homo sapiens) (UniProt Q96GD4); experiment: Inhibition of Aurora B (unknown origin) at <1 uM using aurora peptide as substrate preincubated for 5 mins followed by substrate addition measured after 60 mins in presence of [gamma33P]ATP by scintillation counter method
[21] = biological target: Mitogen-activated protein kinase kinase kinase 19 (Homo sapiens, UniProt Q56UN5); experiment: Binding affinity to partial length wild-type human YSK4 (T1019 to H1328 residues) expressed in bacterial expression system by kinome scan assay
[22] = biological target: T1, Cyclin-dependent kinase 8; experiment: Binding affinity to partial length wild-type human CDK8 (M1 to T360residues) expressed in bacterial expression system by kinome scan assay
[23] = tested on: Mus musculus; experiment: Toxicity in C.B17/Icr scid/scid Jcl mouse assessed as body weight loss at 1.25 mg/kg, po bid administered for 14 days measured post last dose; format: organism-based; conditions: in vivo, 336 h
[24] = biological target: CDK2/Cyclin A2 (Homo sapiens) (UniProt P24941+P20248); experiment: Inhibition of CDK2/cyclin A (unknown origin) at 1 uM using histone H1 as substrate preincubated for 5 mins followed by substrate addition measured after 20 mins in presence of [gamma33P]ATP by scintillation counter method relative to control; format: protein-complex assay
[25] = biological target: Hepatocyte growth factor receptor (Homo sapiens) (UniProt P08581); experiment: Inhibition of cMET (unknown origin) at <1 uM
[26] = Oral bioavailability in ICR mouse plasma at 1 mg/kg administered as cassette dose by LC-MS/MS analysis; format: ADME, organism-based
[27] = tested on: SW480; experiment: Growth inhibition of human SW480 cells after 196 hrs by CellTiter-Glo luminescence assay relative to control; format: functional
[28] = biological target: Homeodomain-interacting protein kinase 2 (Homo sapiens) (UniProt Q9H2X6); experiment: Binding affinity to partial length wild-type human HIPK2 (M153 to S564 residues) expressed in mammalian expression system assessed as unbound drug level at 300 nM by KINOMEscan assay
[29] = biological target: Cyclin-dependent kinase 9 (Homo sapiens, UniProt P50750); experiment: Inhibition of CDK9 (unknown origin)
[30] = tested on: Calu-1; experiment: Growth inhibition of human Calu1 cells after 196 hrs by CellTiter-Glo luminescence assay; format: functional; conditions: Calu-1, 196 h
[31] = biological target: Cyclin-C/Cyclin-dependent kinase 19 (Homo sapiens, UniProt Q9BWU1); experiment: Inhibition of kinase tracer-236 binding to GST-tagged CDK19/CyclinC (unknown origin) after 60 mins by TR-FRET assay; format: protein-complex assay

T1 sequence (P49336 whole entry, the tested form may be a part): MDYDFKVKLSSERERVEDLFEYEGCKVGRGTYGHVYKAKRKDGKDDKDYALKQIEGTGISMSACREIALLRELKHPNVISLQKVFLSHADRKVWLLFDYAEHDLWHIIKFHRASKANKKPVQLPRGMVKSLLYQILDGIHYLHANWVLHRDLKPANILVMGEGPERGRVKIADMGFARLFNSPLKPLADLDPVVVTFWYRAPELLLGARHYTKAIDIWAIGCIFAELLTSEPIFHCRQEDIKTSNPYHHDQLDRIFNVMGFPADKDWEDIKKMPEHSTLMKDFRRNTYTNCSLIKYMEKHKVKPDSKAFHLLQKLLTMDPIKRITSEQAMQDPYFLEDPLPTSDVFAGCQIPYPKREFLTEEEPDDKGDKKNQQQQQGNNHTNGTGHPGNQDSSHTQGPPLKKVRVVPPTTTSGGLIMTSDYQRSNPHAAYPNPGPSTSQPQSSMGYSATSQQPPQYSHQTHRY
Cyclin-dependent kinase 9, sequence (P50750 whole entry): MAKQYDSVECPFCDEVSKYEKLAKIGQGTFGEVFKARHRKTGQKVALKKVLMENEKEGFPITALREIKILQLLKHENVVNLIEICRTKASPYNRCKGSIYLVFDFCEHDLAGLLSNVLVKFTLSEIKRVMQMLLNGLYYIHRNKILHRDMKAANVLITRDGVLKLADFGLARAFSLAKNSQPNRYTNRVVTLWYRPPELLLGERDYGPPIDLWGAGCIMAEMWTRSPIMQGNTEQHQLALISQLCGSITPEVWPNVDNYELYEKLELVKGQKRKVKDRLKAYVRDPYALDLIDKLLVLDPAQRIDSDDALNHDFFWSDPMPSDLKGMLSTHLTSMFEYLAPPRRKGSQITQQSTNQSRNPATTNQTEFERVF
Mitogen-activated protein kinase kinase kinase 5 (Homo sapiens), sequence (Q99683 whole entry): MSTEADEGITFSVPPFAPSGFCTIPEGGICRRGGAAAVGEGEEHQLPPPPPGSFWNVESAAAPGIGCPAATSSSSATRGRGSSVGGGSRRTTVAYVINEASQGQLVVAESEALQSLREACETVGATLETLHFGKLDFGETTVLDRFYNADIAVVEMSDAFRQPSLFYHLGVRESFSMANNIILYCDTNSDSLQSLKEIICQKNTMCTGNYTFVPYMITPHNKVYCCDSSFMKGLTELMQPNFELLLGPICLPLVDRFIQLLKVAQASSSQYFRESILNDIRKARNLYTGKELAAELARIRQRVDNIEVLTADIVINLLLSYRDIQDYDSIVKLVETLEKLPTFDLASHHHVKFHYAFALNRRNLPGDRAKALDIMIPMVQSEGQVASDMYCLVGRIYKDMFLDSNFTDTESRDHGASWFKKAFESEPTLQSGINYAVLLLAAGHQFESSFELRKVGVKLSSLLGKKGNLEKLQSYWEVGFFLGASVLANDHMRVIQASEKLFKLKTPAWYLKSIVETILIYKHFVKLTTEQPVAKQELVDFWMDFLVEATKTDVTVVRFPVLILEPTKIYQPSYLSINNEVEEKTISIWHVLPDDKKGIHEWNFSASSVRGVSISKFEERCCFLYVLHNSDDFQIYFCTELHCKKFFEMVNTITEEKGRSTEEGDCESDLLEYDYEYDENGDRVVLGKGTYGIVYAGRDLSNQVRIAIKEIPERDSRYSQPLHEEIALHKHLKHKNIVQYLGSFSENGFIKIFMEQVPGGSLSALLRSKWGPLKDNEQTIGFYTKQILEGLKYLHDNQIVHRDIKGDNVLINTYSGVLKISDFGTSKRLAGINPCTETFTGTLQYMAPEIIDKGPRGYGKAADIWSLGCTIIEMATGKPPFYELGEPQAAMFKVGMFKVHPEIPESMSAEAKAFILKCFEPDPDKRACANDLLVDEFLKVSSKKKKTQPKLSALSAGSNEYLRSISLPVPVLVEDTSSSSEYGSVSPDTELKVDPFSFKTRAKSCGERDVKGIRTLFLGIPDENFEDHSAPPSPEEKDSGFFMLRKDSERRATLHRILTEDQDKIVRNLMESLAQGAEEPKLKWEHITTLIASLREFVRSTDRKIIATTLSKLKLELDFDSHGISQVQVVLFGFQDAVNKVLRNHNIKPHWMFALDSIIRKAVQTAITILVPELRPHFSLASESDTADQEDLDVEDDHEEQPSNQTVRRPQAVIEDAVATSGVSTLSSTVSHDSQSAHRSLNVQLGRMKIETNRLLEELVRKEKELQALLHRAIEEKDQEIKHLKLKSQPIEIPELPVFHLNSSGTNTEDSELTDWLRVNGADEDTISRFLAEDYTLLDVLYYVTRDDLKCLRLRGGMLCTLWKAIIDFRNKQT
Mitogen-activated protein kinase 14 (Homo sapiens), sequence (Q16539 whole entry): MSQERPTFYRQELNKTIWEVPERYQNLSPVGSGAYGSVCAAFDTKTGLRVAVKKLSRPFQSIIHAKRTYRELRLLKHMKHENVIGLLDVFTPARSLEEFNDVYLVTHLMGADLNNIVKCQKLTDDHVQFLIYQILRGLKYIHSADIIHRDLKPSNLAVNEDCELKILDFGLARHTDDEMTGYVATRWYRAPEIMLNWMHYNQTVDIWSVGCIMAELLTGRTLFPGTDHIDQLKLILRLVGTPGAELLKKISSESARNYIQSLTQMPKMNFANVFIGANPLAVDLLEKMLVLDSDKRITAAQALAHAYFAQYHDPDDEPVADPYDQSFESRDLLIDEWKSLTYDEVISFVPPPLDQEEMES
Vascular endothelial growth factor receptor 2 (Homo sapiens), sequence (P35968 whole entry): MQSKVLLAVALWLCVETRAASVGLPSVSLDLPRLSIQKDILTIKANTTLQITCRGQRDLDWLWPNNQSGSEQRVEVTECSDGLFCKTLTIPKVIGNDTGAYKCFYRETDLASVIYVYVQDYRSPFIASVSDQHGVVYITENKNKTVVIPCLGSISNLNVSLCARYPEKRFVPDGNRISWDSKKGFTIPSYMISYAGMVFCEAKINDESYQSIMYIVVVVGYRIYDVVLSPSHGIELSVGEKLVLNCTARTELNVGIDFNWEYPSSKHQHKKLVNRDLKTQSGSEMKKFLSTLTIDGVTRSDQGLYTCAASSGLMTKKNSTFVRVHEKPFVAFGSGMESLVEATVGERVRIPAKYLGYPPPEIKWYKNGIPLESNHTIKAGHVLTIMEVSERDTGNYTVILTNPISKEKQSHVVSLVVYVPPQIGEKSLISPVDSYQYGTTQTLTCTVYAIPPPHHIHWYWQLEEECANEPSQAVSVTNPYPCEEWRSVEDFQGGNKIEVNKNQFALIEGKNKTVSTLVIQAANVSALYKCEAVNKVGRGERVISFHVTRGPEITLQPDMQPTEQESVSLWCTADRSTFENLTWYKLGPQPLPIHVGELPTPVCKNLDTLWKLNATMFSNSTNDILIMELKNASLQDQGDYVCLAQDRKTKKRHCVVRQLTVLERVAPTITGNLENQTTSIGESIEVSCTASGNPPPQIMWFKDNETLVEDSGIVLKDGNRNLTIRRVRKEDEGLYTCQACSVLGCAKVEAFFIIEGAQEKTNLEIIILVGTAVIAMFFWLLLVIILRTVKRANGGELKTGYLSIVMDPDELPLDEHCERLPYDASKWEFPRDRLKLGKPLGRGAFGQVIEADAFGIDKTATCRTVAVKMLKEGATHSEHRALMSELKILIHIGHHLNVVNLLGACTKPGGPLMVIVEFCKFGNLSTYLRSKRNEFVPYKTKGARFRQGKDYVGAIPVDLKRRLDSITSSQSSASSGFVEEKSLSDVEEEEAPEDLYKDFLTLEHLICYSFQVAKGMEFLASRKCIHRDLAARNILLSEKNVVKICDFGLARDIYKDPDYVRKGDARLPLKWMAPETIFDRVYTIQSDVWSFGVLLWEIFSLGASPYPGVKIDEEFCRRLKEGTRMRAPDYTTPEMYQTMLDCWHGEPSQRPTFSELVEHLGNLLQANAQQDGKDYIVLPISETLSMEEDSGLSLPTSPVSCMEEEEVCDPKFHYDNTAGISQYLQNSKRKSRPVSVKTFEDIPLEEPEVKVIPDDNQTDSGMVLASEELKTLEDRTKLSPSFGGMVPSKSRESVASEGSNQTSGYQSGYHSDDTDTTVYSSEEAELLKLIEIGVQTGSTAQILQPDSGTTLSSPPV
Proto-oncogene tyrosine-protein kinase Src (Homo sapiens), sequence (P12931 2-536 limits assumed): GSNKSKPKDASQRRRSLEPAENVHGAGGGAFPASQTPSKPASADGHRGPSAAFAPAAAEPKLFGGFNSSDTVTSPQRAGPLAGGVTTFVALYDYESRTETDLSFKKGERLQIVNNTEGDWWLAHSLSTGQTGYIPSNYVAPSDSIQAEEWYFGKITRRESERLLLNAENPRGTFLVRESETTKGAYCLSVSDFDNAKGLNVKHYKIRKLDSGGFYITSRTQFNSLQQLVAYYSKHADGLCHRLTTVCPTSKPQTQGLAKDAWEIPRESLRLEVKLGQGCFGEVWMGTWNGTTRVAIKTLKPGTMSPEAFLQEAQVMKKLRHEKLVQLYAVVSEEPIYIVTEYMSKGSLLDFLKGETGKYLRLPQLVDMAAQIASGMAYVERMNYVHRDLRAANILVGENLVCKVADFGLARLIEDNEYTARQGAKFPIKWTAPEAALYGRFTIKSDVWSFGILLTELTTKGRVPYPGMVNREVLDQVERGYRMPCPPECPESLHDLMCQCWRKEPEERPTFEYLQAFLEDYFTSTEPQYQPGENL
Aurora kinase B (Homo sapiens), sequence (Q96GD4 whole entry, the tested form may be a part): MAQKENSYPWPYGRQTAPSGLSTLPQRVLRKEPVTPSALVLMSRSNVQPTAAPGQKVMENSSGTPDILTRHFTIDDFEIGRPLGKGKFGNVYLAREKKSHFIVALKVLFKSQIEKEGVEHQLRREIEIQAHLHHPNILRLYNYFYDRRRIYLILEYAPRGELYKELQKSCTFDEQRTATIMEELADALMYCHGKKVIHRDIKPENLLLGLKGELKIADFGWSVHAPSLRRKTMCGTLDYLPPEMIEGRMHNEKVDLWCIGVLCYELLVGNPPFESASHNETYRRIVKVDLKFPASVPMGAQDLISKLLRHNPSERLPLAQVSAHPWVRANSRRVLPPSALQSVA

COCCNC(=O)c1ccc(Oc2sc(C(N)=O)c3c2-c2sncc2CC3)cn1
AUC [1]: 90.4 ng·h/mL | Kd [2]: 25 nM | inhibition [3]: inactive | half-life [4]: 2.1 h | inhibition [5]: 105% | inhibition [6]: 7% | inhibition [7]: 28% | Fu [8]: 0.41% | inhibition [9]: inactive | EC50 [10]: 1.3 nM | Fu [11]: 0.47% | inhibition [12]: 0% | inhibition [13]: inactive | inhibition [14]: inactive | inhibition [15]: 31% | inhibition [16]: inactive | MTD [17]: 2.5 mg/kg | Activity [18]: 10.2% | MRT [19]: 2.06 h | inhibition [20]: inactive | Kd [21]: 97 nM | Kd [22]: 46 nM | Activity [23]: 0.9% | inhibition [24]: 62% | inhibition [25]: inactive | bioavailability [26]: 98.5% | growth inhibition (GI) [27]: >50% | Fu [28]: 0.48% | IC50 [29]: 270 nM | GI50 [30]: 0.43 nM | IC50 [31]: 0.99 nM
